Assay results reported in patent US7005274B1, “Methods and compositions for diagnosing and treating arthritic disorders and regulating bone mass” (MIGENIX Corp., priority 1999, dated 2006).

How the values were obtained:
[1] = tested on: articular chondrocytes and TC28 cells; test: Intracellular ATP, statements covering both cell preparations; assay type: cell-based, human; conditions: for depletion of intracellular ATP levels: 0.025 mM antimycin A or 0.02 μM oligomycin, administered every 24 hours for 72 hours; for intracellular ATP levels (qualitative): SIN-1 500 μM, NOC-12 250 μM, antimycin A and oligomycin concentration not stated; for effect on TGFβ-induced increase of intracellular ATP: antimycin A 0.025 mM or oligomycin 0.02 μM additionally present
Protocol: Levels of total cellular ATP were measured by a modification of luciferase-based assays known in the art (Lin et al., Anal. Biochem. 24:531–540, 1968); related assays and modifications may alternatively be used (see, e.g., Turman et al., In Vitro Cell. Dev. Biol. Anim. 32:1–4, 1996, for an assay format that uses a fluorescent plate reader). In brief, 2×10^6 cells were washed and pelleted in 10 ml phosphate-buffered saline (PBS). The cell pellets were snap-frozen in a dry ice/ethanol bath, after which […] of 0.2 M HCl was added, followed by 0.3 ml of 2 mM glycine (pH 9.0). Samples were heated at 100° C. for five minutes, then placed on ice. A standard curve was developed using 0 to 500 pmol of purified ATP (disodium salt). One hundred (100) μl of the cell extract, or purified ATP standard, was added to an equal volume of the ATP assay mixture (containing MgSO4, DTT, EDTA, luciferase and luciferin, all from the Sigma Bioluminescence Assay Kit and all diluted 1:25). Following a 5 second incubation and 15 second integration, samples were read on a TD-20/20 Luminometer (Turner Designs, Sunnyvale, Calif.).
In FIG. 1A, articular chondrocytes or TC28 cells (5×10^5) in 5 ml were studied in triplicate in the presence of antimycin (or oligomycin, see next Example) at the indicated concentrations, administered every 24 hours for a total of 72 hours, and total intracellular ATP concentrations were determined as described above. Viability determinations are shown in FIG. 1B, where 2×10^4 chondrocytes or TC28 cells in 0.2 ml were cultured in triplicate in the presence of antimycin (or oligomycin) at the indicated concentrations, administered every 24 hours for a total of 72 hours, and cell viability was determined by trypan blue dye exclusion (>200 cells counted for each replicate).

[2] = tested on: articular chondrocytes and TC28 cells; test: Level of glycolysis; assay type: cell-based, human; conditions: 0.025 mM antimycin A or 0.02 μM oligomycin
[3] = tested on: articular chondrocytes and TC28 cells; test: Oxygen consumption with a Clark electrode (respiratory rate); assay type: cell-based, human; conditions: SIN-1 500 μM; NOC-12 250 μM; antimycin A and oligomycin concentration not stated
chondrocytes [4] = test: Proteoglycan synthesis, [35S] labeling; assay type: cell-based, human; conditions: 72 hours after addition; 0.025 mM antimycin A or non-lethal dose of oligomycin
Protocol: Proteoglycan synthesis was measured by [^35S]-labeling and uptake of the isotope, as well as by biosynthetic incorporation of the isotope (van Osch et al., Matrix Biol. 17:413–424, 1998) into proteoglycans extracted and subsequently purified by column chromatography on Sephadex® G-25 (Pharmacia, Piscataway, N.J.) (FIG. 3). Chondrocytes or TC28 cells (3×10^6) were plated in 30 ml of medium in a 10-cm diameter tissue culture dish and the medium was made 0.025 mM in antimycin (or 0.02 μg/ml oligomycin) every 24 hours for 72 hours. After 48 hours of culture, 20 μCi/ml of [^35S]sodium sulfate was added to each plate in serum-free medium. After a total of 72 hours, the medium was collected and the cells were washed once with phosphate buffered saline (PBS) and then scraped into 0.5 M NaOH and mixed for 48 hours at 4° C. The medium and the cell extract were eluted from Sephadex® (Pharmacia, Piscataway, N.J.) G-25M PD-10 columns with 4M guanidine-HCl. The eluted portion was added to scintillation fluid and counted (n=9 replicates in FIG. 3; *=P<0.05 by Student's t-test).

chondrocytes [5] = test: Extracellular and intracellular PPi elaboration; assay type: cell-based, human; conditions: for ability of TGFβ to increase extracellular and intracellular PPi: TGFβ 10 ng/ml; for basal PPi elaboration: absence of TGFβ
Protocol: One set of experiments described in this Example and presented in FIG. 4 examined the effects of agents that inhibit mitochondrial function on PPi elaboration in the absence of TGFβ. Chondrocytes (primary cultures and immortalized cell line TC-28) were prepared, cultured and treated with oligomycin (FIG. 4A), or with antimycin A (FIG. 4B), as in the preceding Examples. Extracellular PPi was determined radiometrically, and equalized for cellular DNA, according to the method of Terkeltaub et al. (Arthritis Rheum. 41:2152–2164, 1998). To determine intracellular PPi levels, washed cells were heated at 65° C. for 45 minutes, washed again and lysed in lysis buffer (1% Triton X-100, 1.6 mM MgCl2, 0.2 M Tris, pH 8.1), essentially according to the procedures described by Lotz et al. (Proc. Natl. Acad. Sci. U.S.A. 92:10364–10368, 1995).
Another set of experiments examined the ability of inhibitors of mitochondrial function to impact the ability of TGFβ to increase intracellular and extracellular PPi levels. Antimycin A- (FIG. 4B) or oligomycin-treated (FIG. 4A) chondrocytes, as well as control (untreated) cells, prepared as described in the preceding Examples, were incubated with or without TGFβ (10 ng/ml), and levels of extracellular and intracellular PPi levels were determined.

[6] = tested on: TC28 cells or articular chondrocytes expressing NTPPPH PC-1; test: PPi elaboration by PC-1 transfectants; assay type: cell-based; conditions: in the presence of antimycin A or oligomycin
Protocol: In related experiments, the effects on PPi elaboration by PC-1 transfectants of either oligomycin or antimycin A, alone or in combination with TGFβ, were determined (FIG. 4). Briefly, transient transfections were performed on 5×10^5 TC28 cells in a 35 mm tissue culture dish using Lipofectamine Plus™ (Life Technologies, Grand Island, N.Y.). Empty plasmid DNA (2 μg) or wild-type human PC-1-encoding DNA in plasmid pcDNA3.1 (2 μg) (Johnson et al., 1999 Arth. Rheum. 42:1986; Terkeltaub et al., 1994 Arthritis Rheum. 37:934–41) was added to the lipid reagent following a complex formation of the DNA to the “Plus” reagent according to the supplier's instructions, and then incubated with cells for 3 hours at 37° C. in DMEM/Fi2 medium containing 1% FCS. Cells were then washed with phosphate buffered saline (PBS), returned to complete culture medium and incubated an additional 72 hours. […] For adenoviral gene transfer, the protocol of Johnson et al. was followed (1999 Arth. Rheum. 42:1986) using articular chondrocytes which, unlike TC28 cells, cannot be efficiently transfected with plasmid DNA. […] In sum, mitochondrial function, particularly oxidative phosphorylation, appeared to provide ATP that was critical for extracellular matrix synthesis and PPi elaboration in chondrocytes.

NTPPPH = test: Cell-associated NTPPPH activity (control study); assay type: cell-based; conditions: not shown

Molecule | depletion of intracellular ATP levels [1] | intracellular ATP levels (qualitative) [1] | effect on TGFβ-induced increase of intracellular ATP [1] | effect on level of glycolysis [2] | respiratory rates [3] | depression of proteoglycan synthesis (chondrocytes [4]) | ability of TGFβ to increase extracellular and intracellular PPi (chondrocytes [5]) | basal PPi elaboration (chondrocytes [5]) | intracellular and extracellular PPi levels in NTPPPH PC-1 transfectants [6] | cell-associated NTPPPH activity (NTPPPH)
CC[C@H]1/C=C/C=C/C[C@@H](C)[C@H](O)[C@@](C)(O)C(=O)[C@@H](C)[C@H](O)[C@@H](C)C(=O)[C@@H](C)[C@H](O)[C@@H](C)/C=C/C(=O)O[C@@H]2[C@H](C)[C@H](CC1)O[C@]1(CC[C@H](C)[C@H](C[C@@H](C)O)O1)[C@H]2C [oligomycin] | 50–80% | depressed intracellular ATP levels | this effect was blocked | without altering the constitutively high level of glycolysis | inhibited respiratory rates | more than 50% | abrogated the ability of TGFβ to increase extracellular and intracellular PPi | attenuated basal PPi elaboration | unable to increase intracellular and extracellular PPi levels | neither oligomycin nor antimycin treatment suppressed cell-associated NTPPPH activity
antimycin A | 50–80% | depressed intracellular ATP levels | this effect was blocked | without altering the constitutively high level of glycolysis | inhibited respiratory rates | more than 50% | abrogated the ability of TGFβ to increase extracellular and intracellular PPi | attenuated basal PPi elaboration | unable to increase intracellular and extracellular PPi levels | neither oligomycin nor antimycin treatment suppressed cell-associated NTPPPH activity
